Source: patent US4966891A, “Fluorocytidine derivatives” (priority 1987, dated 1990)

Key:
Sarcoma 180 = assay: Antitumor testing against Sarcoma 180 (oral, s.c. implanted); assay type: in vivo, mice; conditions: Mus musculus, 336 h, day 14, read-out: Inhibition of tumor growth; for inhibition in vivo at 1500 µmol/kg: 1.5 mmole/kg/day × 7, p.o.; for inhibition in vivo at 3000 µmol/kg: 3.0 mmole/kg/day × 7, p.o.; for inhibition in vivo at 500 µmol/kg: 0.5 mmole/kg/day × 7, p.o.; for inhibition in vivo at 1400 µmol/kg: 1.4 mmole/kg/day × 7, p.o.; for inhibition in vivo at 2700 µmol/kg: 2.7 mmole/kg/day × 7, p.o.; for inhibition in vivo at 800 µmol/kg: 0.8 mmole/kg/day × 7, p.o.
Protocol: (§1) Sarcoma 180 cells (2×10^6 cells) were implanted subcutaneously into mice (20-22 g) on day 0. The compounds of the present invention were administered daily from day 1 through 7 orally. The animals were sacrificed on day 14 and tumors were excised and weighed. The percent inhibition of tumor growth given in Table 1 below was calculated from the formula:
(§2) T=weight of the tumors from the treated group, C=weight of the tumors from the control group.

Meth A fibrosarcoma = assay: Antitumor testing against Meth A fibrosarcoma (oral, s.c. implanted); assay type: in vivo, mice; conditions: Mus musculus, read-out: Inhibition of tumor growth; for inhibition in vivo at 1500 µmol/kg: 1.5 mmole/kg/day × 7, p.o.; for inhibition in vivo at 3000 µmol/kg: 3.0 mmole/kg/day × 7, p.o.; for inhibition in vivo at 800 µmol/kg: 0.8 mmole/kg/day × 7, p.o.
Protocol: as §1, §2
Meth A fibrosarcoma cells (2×10^5 cells) were implanted subcutaneously into mice (21-22 g). The testing against Meth A fibrosarcoma and the calculation of the percent inhibition of tumor growth were effected according to a manner analogous to that of the testing against Sarcoma 180.

| Compound | inhibition in vivo at 1500 µmol/kg (Meth A fibrosarcoma) | inhibition in vivo at 3000 µmol/kg (Meth A fibrosarcoma) | other results |
| --- | --- | --- | --- |
| CC(=O)Nc1nc(=O)n([C@@H]2O[C@H](C)[C@@H](O)[C@H]2O)cc1F [Example 2, N^4-acetyl-5'-deoxy-5-fluorocytidine] |  |  | inhibition in vivo at 1500 µmol/kg (Sarcoma 180): 84%; inhibition in vivo at 3000 µmol/kg (Sarcoma 180): 91% |
| CCCCCCCCC(=O)Nc1nc(=O)n([C@@H]2O[C@H](C)[C@@H](O)[C@H]2O)cc1F [Example 6, 5'-deoxy-5-fluoro-N^4-nonanoylcytidine] |  |  | inhibition in vivo at 500 µmol/kg (Sarcoma 180): 28%; inhibition in vivo at 1500 µmol/kg (Sarcoma 180): 76% |
| CCCCCCCCCCCCCCCC(=O)Nc1nc(=O)n([C@@H]2O[C@H](C)[C@@H](O)[C@H]2O)cc1F [Example 7, 5'-deoxy-5-fluoro-N^4-hexadecanoylcytidine] |  |  | inhibition in vivo at 1400 µmol/kg (Sarcoma 180): 57%; inhibition in vivo at 2700 µmol/kg (Sarcoma 180): 84% |
| CCCCCCCCCCCCCCCCCC(=O)Nc1nc(=O)n([C@@H]2O[C@H](C)[C@@H](O)[C@H]2O)cc1F [Example 8, 5'-deoxy-5-fluoro-N^4-octadecanoylcytidine] |  |  | inhibition in vivo at 1400 µmol/kg (Sarcoma 180): 20%; inhibition in vivo at 2700 µmol/kg (Sarcoma 180): 77% |
| C[C@H]1O[C@@H](n2cc(F)c(NC(=O)C(C)(C)C)nc2=O)[C@H](O)[C@@H]1O [Example 10, 5'-deoxy-5-fluoro-N^4-pivaloylcytidine] |  |  | inhibition in vivo at 1500 µmol/kg (Sarcoma 180): 74%; inhibition in vivo at 3000 µmol/kg (Sarcoma 180): 97% |
| C[C@H]1O[C@@H](n2cc(F)c(NC(=O)C3CC3)nc2=O)[C@H](O)[C@@H]1O [Example 11, N^4-cyclopropanecarbonyl-5'-deoxy-5-fluorocytidine] |  |  | inhibition in vivo at 800 µmol/kg (Sarcoma 180): 69%; inhibition in vivo at 1500 µmol/kg (Sarcoma 180): 90% |
| C[C@H]1O[C@@H](n2cc(F)c(NC(=O)C3CCCCC3)nc2=O)[C@H](O)[C@@H]1O [Example 12, N^4-cyclohexanecarbonyl-5'-deoxy-5-fluorocytidine] |  |  | inhibition in vivo at 800 µmol/kg (Sarcoma 180): 40%; inhibition in vivo at 1500 µmol/kg (Sarcoma 180): 73% |
| C[C@H]1O[C@@H](n2cc(F)c(NC(=O)C34CC5CC(CC(C5)C3)C4)nc2=O)[C@H](O)[C@@H]1O [Example 13, N^4-(1-adamantanecarbonyl)-5'-deoxy-5-fluorocytidine] |  |  | inhibition in vivo at 800 µmol/kg (Sarcoma 180): 28%; inhibition in vivo at 1500 µmol/kg (Sarcoma 180): 66% |
| C[C@H]1O[C@@H](n2cc(F)c(NC(=O)Cc3ccccc3)nc2=O)[C@H](O)[C@@H]1O [Example 14] | 66% | 94% |  |
| C[C@H]1O[C@@H](n2cc(F)c(NC(=O)/C=C/c3ccccc3)nc2=O)[C@H](O)[C@@H]1O [Example 15, N^4-cinnamoyl-5'-deoxy-5-fluorocytidine] |  |  | inhibition in vivo at 800 µmol/kg (Sarcoma 180): 47%; inhibition in vivo at 1500 µmol/kg (Sarcoma 180): 62% |
| C[C@H]1O[C@@H](n2cc(F)c(NC(=O)c3ccccc3)nc2=O)[C@H](O)[C@@H]1O [Example 16, N^4-benzoyl-5'-deoxy-5-fluorocytidine] | 58% |  | inhibition in vivo at 800 µmol/kg (Meth A fibrosarcoma): 38% |
| Cc1ccc(C(=O)Nc2nc(=O)n([C@@H]3O[C@H](C)[C@@H](O)[C@H]3O)cc2F)cc1 [Example 17] |  |  | inhibition in vivo at 1300 µmol/kg (Sarcoma 180; 1.3 mmole/kg/day × 7, p.o.): 75%; inhibition in vivo at 2600 µmol/kg (Sarcoma 180; 2.6 mmole/kg/day × 7, p.o.): 92% |
| Cc1cccc(C(=O)Nc2nc(=O)n([C@@H]3O[C@H](C)[C@@H](O)[C@H]3O)cc2F)c1 [Example 18] | 51% | 91% |  |
| Cc1ccccc1C(=O)Nc1nc(=O)n([C@@H]2O[C@H](C)[C@@H](O)[C@H]2O)cc1F [Example 19] | 3% | 64% |  |
| C[C@H]1O[C@@H](n2cc(F)c(NC(=O)c3ccc(Cl)cc3)nc2=O)[C@H](O)[C@@H]1O [Example 20] | 53% | 84% |  |
| C[C@H]1O[C@@H](n2cc(F)c(NC(=O)c3cccc(Cl)c3)nc2=O)[C@H](O)[C@@H]1O [Example 21] | 60% |  | inhibition in vivo at 800 µmol/kg (Meth A fibrosarcoma): 17% |
| C[C@H]1O[C@@H](n2cc(F)c(NC(=O)c3ccccc3Cl)nc2=O)[C@H](O)[C@@H]1O [Example 22] | 42% | 42% |  |
| C[C@H]1O[C@@H](n2cc(F)c(NC(=O)c3ccc(F)cc3)nc2=O)[C@H](O)[C@@H]1O [Example 23, 5'-deoxy-5-fluoro-N^4-(4-fluorobenzoyl)cytidine] | 64% |  | inhibition in vivo at 800 µmol/kg (Meth A fibrosarcoma): 56% |
| COc1ccccc1C(=O)Nc1nc(=O)n([C@@H]2O[C@H](C)[C@@H](O)[C@H]2O)cc1F [Example 25] | -6% | 34% |  |

| Compound | inhibition in vivo at 1500 µmol/kg (Meth A fibrosarcoma) | inhibition in vivo at 3000 µmol/kg (Meth A fibrosarcoma) | other results |
| --- | --- | --- | --- |
| COc1ccc(C(=O)Nc2nc(=O)n([C@@H]3O[C@H](C)[C@@H](O)[C@H]3O)cc2F)cc1OC [Example 26] | 37% | 58% |  |
| COc1cc(OC)cc(C(=O)Nc2nc(=O)n([C@@H]3O[C@H](C)[C@@H](O)[C@H]3O)cc2F)c1 [Example 27] | 58% | 91% |  |
| COc1ccc(C(=O)Nc2nc(=O)n([C@@H]3O[C@H](C)[C@@H](O)[C@H]3O)cc2F)c(OC)c1 [Example 28] | -13% | -13% |  |
| C[C@H]1O[C@@H](n2cc(F)c(NC(=O)c3ccc([N+](=O)[O-])cc3)nc2=O)[C@H](O)[C@@H]1O [Example 29] | 49% | 92% |  |
| C[C@H]1O[C@@H](n2cc(F)c(NC(=O)c3cccc([N+](=O)[O-])c3)nc2=O)[C@H](O)[C@@H]1O [Example 30] | 55% | 58% |  |
| COC(=O)c1ccc(C(=O)Nc2nc(=O)n([C@@H]3O[C@H](C)[C@@H](O)[C@H]3O)cc2F)cc1 [Example 31, 5'-deoxy-5-fluoro-N^4-(4-methoxycarbonylbenzoyl)cytidine] | 55% | 84% |  |
| C[C@H]1O[C@@H](n2cc(F)c(NC(=O)c3ccco3)nc2=O)[C@H](O)[C@@H]1O [Example 36, 5'-deoxy-5-fluoro-N^4-(2-furoyl)cytidine] | 53% | 92% |  |
| C[C@H]1O[C@@H](n2cc(F)c(NC(=O)c3cccs3)nc2=O)[C@H](O)[C@@H]1O [Example 37, 5'-deoxy-5-fluoro-N^4-(2-thenoyl)cytidine] | 59% | 86% |  |
| C[C@H]1O[C@@H](n2cc(F)c(NC(=O)c3ccc4ccccc4c3)nc2=O)[C@H](O)[C@@H]1O [Example 40, 5'-deoxy-5-fluoro-N^4-(2-naphthoyl)cytidine] | 57% |  | inhibition in vivo at 800 µmol/kg (Meth A fibrosarcoma): 41% |
| CCCCCCCCOC(=O)Nc1nc(=O)n([C@@H]2O[C@H](C)[C@@H](O)[C@H]2O)cc1F [Example 41, 5'-deoxy-5-fluoro-N^4-(octyloxycarbonyl)cytidine] |  |  | inhibition in vivo at 500 µmol/kg (Sarcoma 180): -18%; inhibition in vivo at 1500 µmol/kg (Sarcoma 180): 36% |
| CCSC(=O)Nc1nc(=O)n([C@@H]2O[C@H](C)[C@@H](O)[C@H]2O)cc1F [Example 44, 5'-deoxy-N^4-(ethylthio)carbonyl-5-fluorocytidine] | 38% | 66% |  |
| CCC(=O)Nc1nc(=O)n([C@@H]2O[C@H](C)[C@@H](O)[C@H]2O)cc1F [Example 45, 5'-deoxy-5-fluoro-N^4-propionylcytidine] | 49% | 71% |  |
| C[C@H]1O[C@@H](n2cc(F)c(NC(=O)c3ccc4c(c3)OCO4)nc2=O)[C@H](O)[C@@H]1O [Example 48, 5'-deoxy-5-fluoro-N^4-piperonyloylcytidine] | 72% |  | inhibition in vivo at 800 µmol/kg (Meth A fibrosarcoma): 42% |
| C=CCC(=O)Nc1nc(=O)n([C@@H]2O[C@H](C)[C@@H](O)[C@H]2O)cc1F [Example 49, N^4-(3-butenoyl)-5'-deoxy-5-fluorocytidine] | 58% | 76% |  |
| C[C@H]1O[C@@H](n2cc(F)c(NC(=O)CCc3ccccc3)nc2=O)[C@H](O)[C@@H]1O [Example 52] | 51% |  | inhibition in vivo at 800 µmol/kg (Meth A fibrosarcoma): 41% |
| Cc1ccc(C(=O)Nc2nc(=O)n([C@@H]3O[C@H](C)[C@@H](O)[C@H]3O)cc2F)cc1C [Example 53] | 48% | 85% |  |
| C[C@H]1O[C@@H](n2cc(F)c(NC(=O)Cc3c[nH]c4ccccc34)nc2=O)[C@H](O)[C@@H]1O [Example 54, 5'-deoxy-5-fluoro-N^4-(3-indolylacetyl)cytidine] | 55% | 85% |  |
| C[C@H]1O[C@@H](n2cc(F)c(N)nc2=O)[C@H](OC(=O)c2ccccc2)[C@@H]1OC(=O)c1ccccc1 [Example 57, 2',3'-di-O-benxoyl-5'-deoxy-5-fluorocytidine] | 28% | 56% |  |
| C[C@H]1O[C@@H](n2cc(F)c(N)nc2=O)[C@H](O)[C@@H]1OC(=O)c1ccccc1 [Example 59, 3'-O-benzoyl-5'-deoxy-5-fluorocytidine] | 23% | 80% |  |
